Patent publication US20230136600A1, “Method and device for screening antigen epitope polypeptide” (priority 2020, published 2023)

System: Balb/c mice
Test: Polypeptide chip-based vaccine immunogenicity scoring system
Type: in vivo
Set-up: key to A2: whether the 95 percentile of the last sampling is increased compared with the end point: Y = rise; N = no rise
Conditions: for Total single peptide: A*3 + B*2 + C*1; for A: 95 percentile grouping number score / B: Mouse performance score: total score = 5; for C1: #A timing-sequence response peptide fragment set / C2: #B vaccine specificity peptide fragment set / C3: Intersection of A and B / C4: Percentage of the intersection in set B / C: Timing-sequence response and specificity score: value of the whole mix
Method: Data distribution and characteristics thereof are analyzed based on a) and b), a polypeptide chip-based vaccine immunogenicity scoring system (referring to Table 7) is designed.
10 combinations are evaluated by the polypeptide chip-based vaccine immunogenicity scoring system. An evaluation method is consistent with that in Embodiment II. Evaluation results are show in the table below.
This embodiment is consistent with Embodiment II. Each combination is evaluated by the polypeptide chip-based vaccine immunogenicity scoring system. Evaluation results are show in the table below.

[1] = Embodiment III, polypeptide-KLH
[2] = Embodiment III, polypeptide-KLH, Mix1-10

| Sequence | B1: D 0-D 14 95 percentile rise in the number of mice [1] | B2: D 0-D 21 95 percentile rise in the number of mice [1] | B3: D 14-D 21 95 percentile rise in the number of mice [1] | B4: D 21-D 28 95 percentile rise in the number of mice [1] | A1: difference between a highest median and a D 0 median (95 percentile) [2] | A2: whether the 95 percentile of the last sampling is increased compared with the end point [2] | Total single peptide [1] | A: 95 percentile grouping number score [1] | B: Mouse performance score [1] | C1: #A timing-sequence response peptide fragment set [1] | C2: #B vaccine specificity peptide fragment set [1] | C3: Intersection of A and B [1] | C4: Percentage of the intersection in set B [1] | C: Timing-sequence response and specificity score [1] | also measured |
| --- | --- | --- | --- | --- | --- | --- | --- | --- | --- | --- | --- | --- | --- | --- | --- |
| ALDPLSETKCT (SARS-CoV-2) [SEQ ID NO:4] | 2 | 3 | 2 | 0 | 0.15 | N | 17.7 | 4.5 | 1.6 | 1494 | 190 | 2 | 1.053 | 1 | – |
| ALNTPKDH (SARS-CoV-2) [SEQ ID NO:19] | 3 | 3 | 0 | 1 | 0.12 | N | 17.9 | 4.5 | 1.7 | 288 | 268 | 4 | 1.493 | 1 | – |
| DNQDLNGNWY (SARS-CoV-2) [SEQ ID NO:31] | 2 | 3 | 2 | 0 | 0.93 | N | 14.2 | 3.5 | 1.6 | 511 | 364 | 1 | 0.275 | 0.5 | – |
| DSFKEELDKY (SARS-CoV-2) [SEQ ID NO:33] | 3 | 3 | 1 | 1 | 0.13 | N | 18.3 | 4.5 | 1.9 | 288 | 268 | 4 | 1.493 | 1 | – |
| DYNYKLPDD (SARS-CoV-2) [SEQ ID NO:11] | 3 | 3 | 1 | 2 | 0.12 | Y | 20.2 | 5 | 2.1 | 288 | 268 | 4 | 1.493 | 1 | – |
| ECVLGQSKR (SARS-CoV-2) [SEQ ID NO:10] | 3 | 3 | 1 | 0 | 0.11 | N | 17.9 | 4.5 | 1.7 | 1494 | 190 | 2 | 1.053 | 1 | – |
| ERSEKSYEL (SARS-CoV-2) [SEQ ID NO:28] | 1 | 2 | 0 | 1 | 0.11 | N | 14.3 | 4 | 0.9 | 1212 | 389 | 1 | 0.257 | 0.5 | – |
| ETSNSFDVLKSE [SEQ ID NO:30] | 2 | 2 | 2 | 1 | 0.02 | N | 6.7 | 1 | 1.6 | 230 | 251 | 1 | 0.398 | 0.5 | – |
| EVFAQVKQIY (SARS-CoV-2) [SEQ ID NO:13] | 3 | 3 | 0 | 2 | 0.08 | Y | 14.8 | 3.5 | 1.9 | 1212 | 389 | 1 | 0.257 | 0.5 | – |
| FHPLADNKF (SARS-CoV-2) [SEQ ID NO:17] | 3 | 2 | 0 | 2 | 0.10 | Y | 17.4 | 4.5 | 1.7 | 133 | 431 | 1 | 0.232 | 0.5 | – |
| GRLQSLQTY (SARS-CoV-2) [SEQ ID NO:5] | 3 | 2 | 0 | 2 | 0.11 | Y | 18.9 | 5 | 1.7 | 133 | 431 | 1 | 0.232 | 0.5 | – |
| GTITVEELKK (SARS-CoV-2) [SEQ ID NO:39] | 1 | 2 | 2 | 0 | 0.03 | N | 5.7 | 1 | 1.1 | 145 | 529 | 1 | 0.189 | 0.5 | – |
| GVYYPDKVFR (SARS-CoV-2) [SEQ ID NO:7] | 3 | 3 | 0 | 0 | 0.09 | N | 14 | 3.5 | 1.5 | 145 | 529 | 1 | 0.189 | 0.5 | A2: whether the 95 percentile of the last sampling is increased compared with the end point (Embodiment II, Combination 2): N; B1: D 0-D 14 95 percentile rise in the number of mice (Embodiment II, Combination 2): 5; B2: D 0-D 21 95 percentile rise in the number of mice (Embodiment II, Combination 2): 0; B3: D 14-D 21 95 percentile rise in the number of mice (Embodiment II, Combination 2): 0; B4: D 21-D 28 95 percentile rise in the number of mice (Embodiment II, Combination 2): 1; Total single peptide (Embodiment II, Combination 2): 18.9; A: 95 percentile grouping number score (Embodiment II, Combination 2): 5; B: Mouse performance score (Embodiment II, Combination 2): 1.7; A1: difference between a highest median and a D 0 median (95 percentile) (Embodiment II, mice immunized with Combination 2): 0.4 |
